# Experimental data as given in patent US9469616B2, “Cyclic compounds and methods of making and using the same” (Cellceutix Corporation, priority 2011, dated 2016).
# Tests used:
# Type in all cases: cell-based
# S. aureus (27660) = test: MIC assay (Table 1); conditions: Staphylococcus aureus, isolate 27660
# E. coli (25922) = test: MIC assay (Table 1); conditions: Escherichia coli, isolate 25922
# NIH/3T3 cells = test: Cytotoxicity colorimetric assay; conditions: Mus musculus, NIH3T3, 1 h, one hour incubation in serum-free media
# Procedure: Cytotoxicity of the compounds are evaluated in a colorimetric assay using a transformed human liver cell line (HepG2, HB-8065) and an embryonic mouse cell line (NIH/3T3 cells, CRL-1658). This assay measures the bioreduction of a novel tetrazolium compound to a soluble formazan product by viable cells. HepG2 cells are seeded in 96 well plates at 2×10^4 cells/well in MEM medium with 10% fetal bovine serum (FBS) 24 hours prior to use. NIH/3T3 cells are seeded in 96 well plates at 2×10^4 cells/well in DMEM medium with 10% bovine calf serum (BCS) 24 hours prior to use. Cell monolayers are rinsed in serum-free media and incubated for one hour with a Compound in serum-free media. After incubation, the media is replaced with serum supplemented media and live cells are measured using the Cell Titer 96 Aqueous […] Assay kit (Promega, Madison, Wis.). EC50 values are determined using a four parameter logistic equation: Y=Bottom+(Top−Bottom)/(1+10^((Log EC50−X)*HillSlope)). […] Data is expressed as EC50 in μg/ml. Cytotoxicity is evaluated in a colorimetric assay using a transformed human liver cell line (HepG2, HB-8065) and an embryonic mouse cell line (NIH/3T3 cells, CRL-1658). This assay measures the bioreduction of a novel tetrazolium compound to a soluble formazan product by viable cells. HepG2 cells are seeded in 96 well plates at 3×10^4 cells/well in MEM medium with 10% fetal bovine serum (FBS) 24 hours prior to use. NIH/3T3 cells are seeded in 96 well plates at 2×10^4 cells/well in DMEM medium with 10% bovine calf serum (BCS) 24 hours prior to use. Cell monolayers are rinsed in serum-free media and incubated for one hour with test agent in serum-free media. After incubation, the media is replaced with serum supplemented media and live cells are measured using the Cell Titer 96 Aqueous […] Assay kit (Promega, Madison, Wis.). EC50 values are determined using a four parameter logistic equation: Y=Bottom+(Top−Bottom)/(1+10^((Log EC50−X)*HillSlope)).
# K. pneumoniae (13883) = test: MIC assay (Table 1); conditions: Klebsiella pneumoniae, isolate 13883, read-out: MIC50 K. Pnuemnoiae
# Procedure: (§1) The compounds are screened for antimicrobial activity against a number of clinically relevant pathogens. Minimum Inhibitory Concentrations (MIC) of each of the compounds are determined using standard procedures for clinical ocular isolates of Ciprofloxacin Susceptible (CS) S. aureus (CSSA), Ciprofloxacin Resistant (CR) S. aureus (CRSA), CS S. epidermidis (CSSE), CR S. epidermidis (CRSE), St. pneumoniae (SP), St. viridans group (SV), Moraxella Species (MS) (including Moraxella catarrhalis), H. influenzae (HI), P. aeruginosa (PA), Serratia marcescens (SM), S. aureus fluoroquinolone-susceptible, S. aureus fluoroquinolone-resistant, S. epidermidis (Coagulase-negative Staphylococcus) fluoroquinolone-susceptible, S. epidermidis (Coagulase-negative Staphylococcus) fluoroquinolone-resistant, and Serratia marcescens.
# (§2) On the day of testing, a 640 μg/m (1280 μg/m for Serratia marcescens and Pseudomonas aeruginosa) concentration is prepared from a 1% stock solution in 0.01% acetic acid, 0.2% BSA in polypropylene tubes.
# (§3) Ten μl of diluted 10× test agents is added to each well of one row of the 96 well polypropylene plates from column 2 to column 12 (column 1 is a control for bacteria alone, with no peptide). […] The same peptide is in each of the 8 rows. One plate contains dilutions of one test agent and 8 bacterial isolates.
# (§4) Ninety μl of the bacterial suspensions is dispensed in each well from column 1 to column 12. Each bacterial isolate is placed in one row of a 96 well polypropylene plate containing the test agents. The plates are placed on shaker at 15 minutes at room temperature, and then incubated at 37° C. overnight. MICs are determined visually as the lowest concentration of drug that inhibits visible bacterial growth.
# (§5) Data is expressed as MIC50 in μg/ml. The bacterial isolates were as follows: E. coli (25922); S. aureus (27660); E. faecalis (29212); P. aeruginosa (10145); and K. pneumoniae (13883).
# E. faecalis (29212) = test: MIC assay (Table 1); conditions: Enterococcus faecalis, isolate 29212
# Procedure: as §1, §2, §3, §4, §5
# HepG2 = test: Cytotoxicity colorimetric assay; conditions: Homo sapiens, HepG2, 1 h, one hour incubation in serum-free media
# Procedure: Cytotoxicity of the compounds are evaluated in a colorimetric assay using a transformed human liver cell line (HepG2, HB-8065) and an embryonic mouse cell line (NIH/3T3 cells, CRL-1658). This assay measures the bioreduction of a novel tetrazolium compound to a soluble formazan product by viable cells. HepG2 cells are seeded in 96 well plates at 2×10^4 cells/well in MEM medium with 10% fetal bovine serum (FBS) 24 hours prior to use. NIH/3T3 cells are seeded in 96 well plates at 2×10^4 cells/well in DMEM medium with 10% bovine calf serum (BCS) 24 hours prior to use. Cell monolayers are rinsed in serum-free media and incubated for one hour with a Compound in serum-free media. After incubation, the media is replaced with serum supplemented media and live cells are measured using the Cell Titer 96 Aqueous […] Assay kit (Promega, Madison, Wis.). EC50 values are determined using a four parameter logistic equation: Y=Bottom+(Top−Bottom)/(1+10^((Log EC50−X)*HillSlope)). Actual results from a representative cytotoxicity assay are shown below in Table 3. Data is expressed as EC50 in μg/ml. Cytotoxicity is evaluated in a colorimetric assay using a transformed human liver cell line (HepG2, HB-8065) and an embryonic mouse cell line (NIH/3T3 cells, CRL-1658). This assay measures the bioreduction of a novel tetrazolium compound to a soluble formazan product by viable cells. HepG2 cells are seeded in 96 well plates at 3×10^4 cells/well in MEM medium with 10% fetal bovine serum (FBS) 24 hours prior to use. NIH/3T3 cells are seeded in 96 well plates at 2×10^4 cells/well in DMEM medium with 10% bovine calf serum (BCS) 24 hours prior to use. Cell monolayers are rinsed in serum-free media and incubated for one hour with test agent in serum-free media. After incubation, the media is replaced with serum supplemented media and live cells are measured using the Cell Titer 96 Aqueous […] Assay kit (Promega, Madison, Wis.). EC50 values are determined using a four parameter logistic equation: Y=Bottom+(Top−Bottom)/(1+10^((Log EC50−X)*HillSlope)).
# P. aeruginosa (10145) = test: MIC assay (Table 1); conditions: Pseudomonas aeruginosa, isolate 10145
# Escherichia coli = test: Antimicrobial activity (MIC) of aryl compounds (Table 2)
# Excerpt: (§6) A new series of aryl compounds was designed to evaluate the effect of charge and aromatic group hydrophobicity on the biological activity while still maintaining an amphiphilic topology. Four and six cationic charges were investigated, and three different central rings were used to tune the overall hydrophobicity: benzene, naphthalene, and phenylbenzene. The hydrophobicities of the aryl compounds were quantified using reversed-phase HPLC retention times (Rt). The antimicrobial activities (expressed as minimum inhibitory concentration (MIC)) of these compounds were tested against four pathogens, including both Gram-negative and Gram-positive bacteria, and their hemolysis (evaluated in terms of HC50, the lowest concentration that causes 50% hemolysis of red blood cells (RBCs)) was tested against human RBCs.
# Staphylococcus aureus = test: as above
# Excerpt: as §6
Compound,MIC50 (S. aureus (27660)) [µg/mL],MIC50 (E. coli (25922)) [µg/mL],EC50 (NIH/3T3 cells) [µg/mL],MIC50 (K. pneumoniae (13883)) [µg/mL],MIC50 (E. faecalis (29212)) [µg/mL],EC50 (HepG2) [µg/mL],MIC50 (P. aeruginosa (10145)) [µg/mL],"MIC (Escherichia coli; Escherichia coli, Table 2) [µg/mL]",Selectivity (HC50/MIC) E. coli (Escherichia coli; HC50/MIC),Selectivity (HC50/MIC) S. aureus (Staphylococcus aureus; HC50/MIC),"MIC (Staphylococcus aureus; Staphylococcus aureus, Table 2, read-out: MIC S. aureus) [µg/mL]"
N=C(N)NCCCOc1ccc(-n2cc(-c3ccc4ccc(-c5cn(-c6ccc(OCCCNC(=N)N)c(OCCCNC(=N)N)c6)nn5)cc4c3)nn2)cc1OCCCNC(=N)N [Compound 104],25,> 50,34.7,> 50,25,54,50,,,,
NCCCOc1cc(-c2cn(-c3cc(OCCCN)cc(OCCCN)c3)nn2)cc(-c2cn(-c3cc(OCCCN)cc(OCCCN)c3)nn2)c1 [Compound 105],25,50,83.4,> 50,> 50,,50,,,,
NCCCOc1ccc(-n2cc(-c3cccc(-c4cn(-c5ccc(OCCCN)c(OCCCN)c5)nn4)c3)nn2)cc1OCCCN [Compound 101],12.5,> 50,52.4,> 50,12.5,,50,,,,
Cc1ccc(-c2cc(-c3cc(OCCCN)cc(OCCCN)c3)cc(-c3cc(OCCCN)cc(OCCCN)c3)c2)cc1 [Compound 110],0.78,3.13,129,6.25,1.56,,25,,,,
N=C(N)NCCCOc1cc(OCCCNC(=N)N)cc(-c2ccc3ccc(-c4cc(OCCCNC(=N)N)cc(OCCCNC(=N)N)c4)cc3c2)c1 [Compound 117],1.56,1.56,31.6,1.56,0.78,,12.5,,,,
N=C(N)NCCCOc1cc(OCCCNC(=N)N)cc(-c2cc(-c3ccccc3)cc(-c3cc(OCCCNC(=N)N)cc(OCCCNC(=N)N)c3)c2)c1 [Compound 114],0.78,1.56,33.6,1.56,3.13,40.4,12.5,,,,
N=C(N)NCCCOc1cc(-c2cn(-c3cc(OCCCNC(=N)N)cc(OCCCNC(=N)N)c3)nn2)cc(-c2cn(-c3cc(OCCCNC(=N)N)cc(OCCCNC(=N)N)c3)nn2)c1 [Compound 100],50,50,23.2,> 50,25,48.6,> 50,,,,
NCCCOc1cc(C#Cc2ccc3ccc(C#Cc4cc(OCCCN)cc(OCCCN)c4)cc3c2)cc(OCCCN)c1 [Compound 120],3.13,3.13,15.2,6.25,1.56,36.4,6.25,,,,
NCCCOc1cc(OCCCN)cc(-n2cc(-c3ccc4ccc(-c5cn(-c6cc(OCCCN)cc(OCCCN)c6)nn5)cc4c3)nn2)c1 [Compound 102],12.5,> 50,36.1,50,25,48.4,> 50,,,,
N=C(N)NCCCOc1cc(OCCCNC(=N)N)cc(-c2cccc(-c3cc(OCCCNC(=N)N)cc(OCCCNC(=N)N)c3)c2)c1 [Compound 109],0.4,1.56,69,6.25,1.56,,12.5,,,,
NCCCOc1cc(OCCCN)cc(-c2cc(-c3cc(OCCCN)cc(OCCCN)c3)cc(-c3cc4ccccc4[nH]3)c2)c1 [Compound 108],1.56,6.25,,> 50,12.5,,25,,,,
NCCCOc1cc(OCCCN)cc(-c2cccc(-c3cc(OCCCN)cc(OCCCN)c3)c2)c1 [Compound 111],12.5,50,814,> 50,50,> 1020,> 50,50,>20,>80,12.5
NCCCOc1cc(-c2cn(-c3cccc(OCCCN)c3)nn2)cc(-c2cn(-c3cccc(OCCCN)c3)nn2)c1 [Compound 107],50,> 50,131,> 50,25,,25,,,,
CC(C)(C)c1ccc(-c2cc(-c3cc(OCCCN)cc(OCCCN)c3)cc(-c3cc(OCCCN)cc(OCCCN)c3)c2)cc1 [Compound 113],1.56,3.13,99.5,3.13,1.56,,12.5,,,,
NCCCOc1ccc(-n2cc(-c3ccc4ccc(-c5cn(-c6ccc(OCCCN)c(OCCCN)c6)nn5)cc4c3)nn2)cc1OCCCN [Compound 103],25,> 50,32.7,> 50,25,55.5,50,,,,
N=C(N)NCCCOc1cc(-c2cn(-c3cccc(OCCCNC(=N)N)c3)nn2)cc(-c2cn(-c3cccc(OCCCNC(=N)N)c3)nn2)c1 [Compound 106],1.56,25,191,> 50,50,,50,,,,
